Measured values published in patent publication US10125097B2, “1- [1-(benzoyl)-pyrrolidine-2-carbonyl]-pyrrolidine-2-carbonitrile derivatives” (UNIVERSITAT DE BARCELONA, priority 2012, dated 2018).

What was measured:
[1] = Parallel artificial membrane permeability assay (PAMPA); type: in vitro ADME; details: 200 μM initial concentration, pH 7.4, 4 hours, room temperature
Protocol: Parallel artificial membrane permeability assay (PAMPA) described in Kansy M et al., J. Med. Chem. 1998; 41(7):1007-10 was used to determine the capacity of compounds to cross the Blood-Brain Barrier (BBB) by passive diffusion (Di L et al., Eur. J. Med. Chem. 2003; 38(3):223-32). The effective permeability (Pe) of the compounds was measured at an initial concentration of 200 μM. The buffer solution was prepared from a commercial concentrated one following the manufacturer's instructions. pH was adjusted to 7.4 using a 0.5 M NaOH solution. A stock solution of new compound was prepared in DMSO and diluted with buffer solution to a final 200 μM concentration (0.5% DMSO content). The PAMPA sandwich was separated and each donor well was filled with 200 μL of the compound solution. The acceptor plate was placed into the donor plate, ensuring that the underside of the membrane was in contact with buffer. 4 μL of the mixture of phospholipids (20 mg/mL) in dodecane was added to the filter of each well, and 200 μL of buffer solution was added to the each acceptor well. The plate was covered and incubated at room temperature in a saturated humidity atmosphere for 4 hours under orbital agitation at 100 rpm. After 4 hours, the contents of the acceptor and donor compartments were analyzed by HPLC: 150 μL of each well from the donor plate and 150 μL of each well from the acceptor plate were transferred to HPLC vials, injecting each sample into a reverse-phase C18 column (150 mm×4.6 mm×5 μm, 100 Å) (100 μL/injection from the acceptor wells, 10 μL/injection from the donor wells and for t0 references). Transport was also confirmed by MALDI-TOF spectrometry.
The phospholipid mixture used was a porcine polar brain lipid extract, provided by Avanti polar lipids, with the following composition: 12.6% phosphatidylcholine (PC), 33.1% phosphatidylethanolamine (PE), 18.5% phosphatidylserine (PS), 4.1% phosphatidylinositol (PI), 0.8% phosphatidic acid and 30.9% of other compounds.
The effective permeability (Pe) after 4 hours was calculated using equation 2 and the percentage of transport was calculated using equation 3:
[formula] wherein: t is time (h) CA(t) is the compound concentration in the acceptor well at time t and CD(to) is the compound concentration in the donor well at to.

[2] = tested on: MK-801-treated rodents; experiment: Novel object recognition (NOR) task in MK-801 cognition impairment model; type: in vivo, rodents (mice or rats); details: 5 mg/Kg s.c.; MK-801 0.2 mg/kg i.p.; FIG. 1
Protocol: (§1) The new compounds were evaluated for their efficacy as cognition enhancers in a pharmacological model for cognitive impairment. The effects of the new compounds were evaluated in untreated and MK-801-treated rodents (mice or rats). MK-801 is a non-competitive antagonist of the N-Methyl-D-aspartate (NMDA) receptor which impairs animal performance in various learning and memory paradigms (Castellano C et al., Curr. Drug Targets 2001; 2:273-83; Riedel G et al., Behav. Brain Res. 2003; 140:1-47). MK-801 also produces various effects on rodent behavior, including deficits in sensory processing, hypermotility, stereotypy and ataxia. […]
The novel object recognition (NOR) task is based on the natural preference of rodents to explore novel objects (Ennaceur A et al., Behav. Brain Res. 1988; 31:47-59). […] The animals were then allowed to explore freely for 10 min, and the time spent exploring each object was recorded. […] An index of discrimination was calculated as follows: time spent exploring the new object minus time spent exploring the old object, divided by the total time exploring both objects, and multiplied by 100. […]

[3] = tested on: MK-801-treated rodents; experiment: Passive avoidance task in MK-801 cognition impairment model; type: in vivo, rodents (mice or rats); details: 5 mg/Kg s.c. 35 min before shock session; MK-801 0.2 mg/kg i.p.; FIG. 2
Protocol: as §1
For the evaluation of the passive avoidance task, a two-compartment box with a light compartment and a dark compartment of the same dimensions was used. […] In the evaluation session, the time which the animal takes to enter the dark compartment (in seconds) was measured, as a sign of memory retention of the shock received in the dark compartment during the previous session. […] The corresponding evaluated compound was injected s.c. 35 min before the shock session, followed 15 minutes later by i.p. injection of MK-801, or PBS in the case of the control, in the same doses and volume as described for the object recognition test.

## COc1cc(C(=O)N2CC(F)(F)C[C@H]2C(=O)N2CCC[C@H]2C#N)cc(OC)c1OCc1ccccc1 [Example 4, (S)-1-((2S)-1-(4-(benzyloxy)-3,5-dimethoxybenzoyl)-4,4-difluoropyrrolidine-2-carbonyl)pyrrolidine-2-carbonitrile]
[1]
  % T (percentage of transport): 29.92%
[1]; PAMPA, read-out: Effective permeability Pe
  Papp at 4 h, 200 μM: 22.1 ×10⁻⁶ cm/s
[2]
  Reversal of MK-801-induced memory impairment in the NOR test: able to reverse MK-801-induced memory impairment
[3]
  Reversal of MK-801-induced memory impairment in the passive avoidance test (latency to enter dark compartment): able to reverse MK-801-induced memory impairment
